Consider 1 compound from patent US9187496B2 (priority 2009, dated 2015).

The EC50 is the concentration that produces a half-maximal response. One may read the CC50 as the concentration at which the toxic effect on the cells reaches its halfway point. A lower CC50 goes with greater toxicity to the cells.

Each structure is given as a SMILES string.

The target of data set [1] is HCV genotype 1b Conl strain subgenomic luciferase replicon (Zluc). Kind of data set: Luciferase replicon assay, genotype 1b. The data set is classed as cell-based. Conditions: genotype 1b, luciferase replicon, 72 hours; read-out: EC50 1b. An outline of the steps:
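Huh-7 cells carrying the genotype 1b Con1 subgenomic luciferase–neo replicon (Zluc), seeded at 7.5×10^3 cells/well, got ten 5-fold compound dilutions 3 h after plating and were incubated 72 h at 37 °C. Replication was read as ONE-Glo luciferase luminescence. EC50 came from dose-response curve fits.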
(A replicon is a self-replicating genome or part of one, used to study replication in cells.)

In data set [2] the test system is HCV genotype 2a-specific NS5A gene within the 1b-replicon. The data set is described as follows: Luciferase replicon assay, NS5A-intergenotypic stable cell line genotype 2a. Conditions: genotype 2a; read-out: EC50 2a. In kind it is cell-based.
Data set [3] has as its system HCV genotype 3a-specific NS5A gene within the 1b-replicon. The data set is described as follows: Luciferase replicon assay, NS5A-intergenotypic stable cell line genotype 3a. Conditions: genotype 3a; read-out: EC50 3a. The data set is classed as cell-based.
Data set [4] relates to HCV genotype 4a-specific NS5A gene within the 1b-replicon. Kind of data set: Luciferase replicon assay, NS5A-intergenotypic stable cell line genotype 4a. In kind it is cell-based. The settings on record: genotype 4a; read-out: EC50 4a.
The test system of a further data set is H1a-luc or Zluc cells. Kind of data set: Cytotoxicity evaluation in luciferase replicon cells (Cell Titer 96 AQueous One). The data set is classed as cell-based, human. The settings on record: Table 1B, cellular viability. As for the experimental part: For cytotoxicity evaluation, H1a-luc or Zluc cells were treated with compounds as described above and cellular viability was monitored using the Cell Titer 96 AQueous One Solution Cell Proliferation Assay (Promega). Plates were then read at 490 nm in a Victor^3V 1420 multilabel counter (Perkin Elmer) and CC50 concentrations were determined using Microsoft Excel and XLfit 4.1 software.

For the compound `COC(=O)N[C@H](C(=O)N1CCC[C@H]1c1nc2ccc(-c3csc4c(C#Cc5cnc([C@@H]6CCCN6C(=O)[C@H](NC(=O)OC)c6ccccc6)[nH]5)csc34)cc2[nH]1)C(C)C` [Compound A206], the EC50 in data set [1], in data set [2], in data set [3] and in data set [4] was less than 0.1 nM each time. Besides, the CC50 in the data set with H1a-luc or Zluc cells was more than 75000 nM.
